Measured values published in US12060355B2, “Compounds for use in the treatment of fascioliasis” (Merck Patent GmbH, priority 2018, dated 2024).

System: human HepG2 cell lines
Type: cell-based
Conditions: human HepG2 cell line

SMILES | Cytotox HepG2
CC(C)c1nc2cnc(-c3ccc(F)c(C(F)(F)F)c3)cn2c1-c1ccc2[nH]ncc2c1F [Example 2, 4-fluoro-5-{6-[4-fluoro-3-(trifluoromethyl)phenyl]-2-(propan-2-yl)imidazo[1,2-a]pyrazin-3-yl}-1H-indazole] | 10.4 µM
Cc1nc2cnc(-c3cccc(C(F)(F)F)c3)cn2c1-c1c(F)cc(O)cc1F [Example 15, 3,5-difluoro-4-[2-methyl-6-[3-(trifluoromethyl)phenyl]imidazo[1,2-a]pyrazin-3-yl]phenol] | 8.4 µM
Cc1nc2cnc(-c3ccc(F)c(C(F)(F)F)c3)cn2c1-c1c(F)cc(O)cc1F [Example 16, 3,5-difluoro-4-[2-methyl-6-[4-fluoro-3-(trifluoromethyl)phenyl]imidazo[1,2-a]pyrazin-3-yl]phenol] | 7.6 µM
CC(C)c1nc2cnc(-c3cccc(C(F)(F)F)c3)cn2c1-c1c(F)cc(O)cc1F [Example 19, 3,5-difluoro-4-[2-(propan-2-yl)-6-[3-(trifluoromethyl)phenyl]imidazo[1,2-a]pyrazin-3-yl]phenol] | 7.5 µM
CC(C)c1nc2cnc(-c3cccc(C(F)(F)F)c3)cn2c1-c1ccc2[nH]ncc2c1F [Example 21, 4-fluoro-5-{2-propan-2-yl-6-[3-trifluoromethylphenyl]imidazo[1,2-a]pyrazin-3-yl}-1H-indazole] | 15.1 µM
CC(C)c1nn2cnc(-c3cccc(C(F)(F)F)c3)cc2c1-c1c(F)cc(O)cc1F [Example 24, 3,5-difluoro-4-(2-isopropyl-5-(3-(trifluoromethyl)phenyl)pyrazolo[1,5-c]pyrimidin-3-yl)phenol] | 8.4 µM
Fc1c(-c2c(C(F)(F)F)nc3cnc(-c4cccc(C(F)(F)C(F)(F)F)c4)cn23)ccc2[nH]ncc12 [Example 29, 4-fluoro-5-{2-trifluoromethyl-6-[3-(pentafluoroethyl)phenyl]imidazo[1,2-a]pyrazin-3-yl}-1H-indazole] | 8.9 µM
COc1ccc(-c2c(C(F)(F)F)nc3cnc(-c4cccc(C(F)(F)C(F)(F)F)c4)cn23)cc1O [Example 30, 2-methoxy-5-[2-(trifluoromethyl)-6-[3-(pentafluoroethyl)phenyl]imidazo[1,2-a]pyrazin-3-yl]phenol] | 11.1 µM
Fc1ccc(-c2cn3c(-c4ccc5[nH]ncc5c4F)c(C4CC4)nc3cn2)cc1C(F)(F)F [Example 32, 4-fluoro-5-{2-cyclopropyl-6-[4-fluoro-3-(trifluoromethyl)phenyl]imidazo[1,2-a]pyrazin-3-yl}-1H-indazole] | 16.1 µM
CC1(c2nc3cnc(-c4ccc(F)c(C(F)(F)F)c4)cn3c2-c2c(F)cc(O)cc2F)CC1 [Example 33, 3,5-difluoro-4-[2-(1-methyl-cycloprop-1-yl)-6-[4-fluoro-3-(trifluoromethyl)phenyl]imidazo[1,2-a]pyrazin-3-yl]phenol] | 7.9 µM
Oc1cc(F)c(-c2c(C3CC3)nc3cnc(-c4ccc(F)c(C(F)(F)F)c4)cn23)c(F)c1 [Example 34, 4-(2-cyclopropyl-6-(4-fluoro-3-(trifluoromethyl)phenyl)imidazo[1,2-a]pyrazin-3-yl)-3,5-difluorophenol] | 8.9 µM
Oc1cc(F)c(-c2c(C3CCC3)nc3cnc(-c4ccc(F)c(C(F)(F)F)c4)cn23)c(F)c1 [Example 35, 4-(2-cyclobutyl-6-(4-fluoro-3-(trifluoromethyl)phenyl)imidazo[1,2-a]pyrazin-3-yl)-3,5-difluorophenol] | 5.7 µM
CCc1nc2cnc(-c3ccc(F)c(C(F)(F)F)c3)cn2c1-c1c(F)cc(O)cc1F [Example 36, 3,5-difluoro-4-[2-ethyl-6-[4-fluoro-3-(trifluoromethyl)phenyl]imidazo[1,2-a]pyrazin-3-yl]phenol] | 8.3 µM
CCc1nc2cnc(-c3ccc(F)c(C(F)(F)F)c3)cn2c1-c1ccc2[nH]ncc2c1F [Example 37, 4-fluoro-5-{2-ethyl-6-[4-fluoro-3-(trifluoromethyl)phenyl]imidazo[1,2-a]pyrazin-3-yl}-1H-indazole] | 13.1 µM
CC(C)c1nc2cnc(-c3cccc(S(F)(F)(F)(F)F)c3)cn2c1-c1c(F)cc(O)cc1F [Example 39, 3,5-difluoro-4-[2-(propan-2-yl)-6-[3-(pentafluorosulfanyl)phenyl]imidazo[1,2-a]pyrazin-3-yl]phenol] | 6.6 µM
Fc1c(-c2c(C3CC3)nc3cnc(-c4cccc(S(F)(F)(F)(F)F)c4)cn23)ccc2[nH]ncc12 [Example 46, 2-cyclopropyl-3-(4-fluoro-1H-indazol-5-yl)-6-(3-(pentafluoro-λ6-sulfaneyl)phenyl)imidazo[1,2-a]pyrazine] | 20.7 µM
CCc1nn2cnc(-c3ccc(F)c(C(F)(F)F)c3)cc2c1-c1c(F)cc(O)cc1F [Example 48, 4-(2-ethyl-5-(4-fluoro-3-(trifluoromethyl)phenyl)pyrazolo[1,5-c]pyrimidin-3-yl)-3,5-difluorophenol] | 9.8 µM

SMILES | Cytotox HepG2
Cc1nc2cnc(-c3cccc(C(F)(F)C(F)(F)F)c3)cn2c1-c1c(F)cc(O)cc1F [Example 49, 3,5-difluoro-4-[2-methyl-6-[3-(pentafluoroethyl)phenyl]imidazo[1,2-a]pyrazin-3-yl]phenol] | 9.3 µM
CCc1nc2cnc(-c3cccc(C(F)(F)C(F)(F)F)c3)cn2c1-c1c(F)cc(O)cc1F [Example 52, 4-[2-Ethyl-6-(3-pentafluoroethyl-phenyl)-imidazo[1,2-a]pyrazin-3-yl]-3,5-difluoro-phenol] | 8.0 µM
Cc1nc2cnc(-c3ccc(F)c(C(F)(F)C(F)(F)F)c3)cn2c1-c1c(F)cc(O)cc1F [Example 53, 3,5-Difluoro-4-[6-(4-fluoro-3-pentafluoroethyl-phenyl)-2-methyl-imidazo[1,2-a]pyrazin-3-yl]-phenol] | 8.8 µM
Oc1cc(F)c(-c2c(C3CC3)nc3cnc(-c4ccc(F)c(S(F)(F)(F)(F)F)c4)cn23)c(F)c1 [Example 56, 4-[2-Cyclopropyl-6-(4-fluoro-3-pentafluorosulfanyl-phenyl)-imidazo[1,2-a]pyrazin-3-yl]-3,5-difluoro-phenol] | 10.1 µM
Fc1ccc(-c2cn3c(-c4ccc5[nH]ncc5c4F)c(C4CC4)nc3cn2)cc1S(F)(F)(F)(F)F [Example 57, 2-Cyclopropyl-3-(4-fluoro-1H-indazol-5-yl)-6-(4-fluoro-3-pentafluorosulfanyl-phenyl)-imidazo[1,2-a]pyrazine] | 14.8 µM
CC(C)c1nn2cnc(-c3ccc(F)c(C(F)(F)C(F)(F)F)c3)cc2c1-c1ccc2[nH]ncc2c1F [Example 58, 3-(4-Fluoro-1H-indazol-5-yl)-5-(4-fluoro-3-pentafluoroethyl-phenyl)-2-isopropyl-pyrazolo[1,5-c]pyrimidine] | 10.8 µM
Fc1ccc(-c2cn3c(-c4ccc5[nH]ncc5c4F)c(C(F)(F)F)nc3cn2)cc1C(F)(F)C(F)(F)F [Example 63, 3-(4-Fluoro-1H-indazol-5-yl)-6-(4-fluoro-3-pentafluoroethyl-phenyl)-2-trifluoromethyl-imidazo[1,2-a]pyrazine] | 11.7 µM
Fc1ccc(-c2cn3c(-c4ccc5[nH]ncc5c4F)c(C(F)(F)F)nc3cn2)cc1S(F)(F)(F)(F)F [Example 65, 3-(4-Fluoro-1H-indazol-5-yl)-6-(4-fluoro-3-pentafluorosulfanyl-phenyl)-2-trifluoromethyl-imidazo[1,2-a]pyrazine] | 11.1 µM
CC(C)c1cccc(-c2cn3c(-c4ccc5[nH]ncc5c4F)c(C(F)(F)F)nc3cn2)c1 [Example 66, 3-(4-Fluoro-1H-indazol-5-yl)-6-(3-isopropyl-phenyl)-2-trifluoromethyl-imidazo[1,2-a]pyrazine] | 12.9 µM
CC(C)c1cc(-c2cn3c(-c4ccc5[nH]ncc5c4F)c(C(F)(F)F)nc3cn2)ccc1F [Example 67, 3-(4-Fluoro-1H-indazol-5-yl)-6-(4-fluoro-3-isopropyl-phenyl)-2-trifluoromethyl-imidazo[1,2-a]pyrazine] | 17.0 µM
Fc1ccc(-c2cn3c(-c4ccc5[nH]ncc5c4F)c(C(F)(F)F)nc3cn2)cc1CC(F)(F)F [Example 69, 3-(4-Fluoro-1H-indazol-5-yl)-6-[4-fluoro-3-(2,2,2-trifluoro-ethyl)-phenyl]-2-trifluoromethyl-imidazo[1,2-a]pyrazine] | 5.3 µM
Fc1ccc(-c2cn3c(-c4ccc5[nH]ncc5c4F)c(C(F)(F)F)nc3cn2)cc1OC(F)(F)F [Example 71, 3-(4-Fluoro-1H-indazol-5-yl)-6-(4-fluoro-3-trifluoromethoxy-phenyl)-2-trifluoromethyl-imidazo[1,2-a]pyrazine] | 12.2 µM
Fc1c(-c2c(C(F)(F)F)nc3cnc(-c4cccc(OC(F)(F)F)c4)cn23)ccc2[nH]ncc12 [Example 72, 3-(4-Fluoro-1H-indazol-5-yl)-6-(3-trifluoromethoxy-phenyl)-2-trifluoromethyl-imidazo[1,2-a]pyrazine] | 9.7 µM
CC(C)c1cc(-c2cn3c(-c4ccc5[nH]ncc5c4F)c(C(C)C)nc3cn2)ccc1F [Example 74, 3-(4-Fluoro-1H-indazol-5-yl)-6-(4-fluoro-3-isopropyl-phenyl)-2-isopropyl-imidazo[1,2-a]pyrazine] | 11.0 µM
CCc1nc2cnc(-c3ccc(F)c(C(C)C)c3)cn2c1-c1ccc2[nH]ncc2c1F [Example 75, 2-Ethyl-3-(4-fluoro-1H-indazol-5-yl)-6-(4-fluoro-3-isopropyl-phenyl)-imidazo[1,2-a]pyrazine] | 11.3 µM
CC(C)c1cc(-c2cn3c(-c4ccc5[nH]ncc5c4F)c(C4CCC4)nc3cn2)ccc1F [Example 77, 2-Cyclobutyl-3-(4-fluoro-1H-indazol-5-yl)-6-(4-fluoro-3-isopropyl-phenyl)-imidazo[1,2-a]pyrazine] | 10.8 µM
CC(C)c1cc(-c2cn3c(-c4ccc5[nH]ncc5c4F)c(C4CC4)nc3cn2)ccc1F [Example 79, 2-Cyclopropyl-3-(4-fluoro-1H-indazol-5-yl)-6-(4-fluoro-3-isopropyl-phenyl)-imidazo[1,2-a]pyrazine] | 15.7 µM
